Measured values published in paper PMC10674160, “Synthesis and Preclinical Evaluation of Radiolabeled [^103Ru]BOLD-100” (Pharmaceutics, 2023).

Key:
HCT116 cells = experiment: MTT cytotoxicity assay, 96 h exposure; type: cell-based, human; settings: exposure time 96 h, mean ± SD
Protocol: (§1) The murine cancer cell line CT26 and the human cancer cell line HCT116 were both obtained from the American Type Culture Collection (ATCC). Both cell lines were grown as adherent monolayer cultures in 75 cm^2 culture flasks in RPMI 1640 medium (supplemented with 2 mM L-glutamine and 1% PenStrep, Gibco^TM) and 10% fetal bovine serum (FBS, Gibco^TM) at 37 °C under a humid atmosphere containing 5% CO2 and 95% air. For splitting, accutase® solution (Sigma Aldrich) was used.
(§2) Cell viability was determined by the colorimetric MTT assay. The cells were seeded in RPMI 1640 medium in a 96-well cell culture plate 24 h prior to treatment at a density of 1.5 × 10^3 (CT26) and 2 × 10^3 (HCT116) cells per well. A stock solution of compounds 3a and 3b was prepared in DMSO and then diluted with RPMI 1640 medium (maximum 0.5% v/v of DMSO per well). After serial dilutions, a 100 µL aliquot was added to each well ([…], 6.25, 3.13 µmol/L per well). […] Optical densities were measured at 490 nm with a Synergy^TM HTX Multi-Mode Reader (BioTek, Winooski, VT, USA), using a reference wavelength of 650 nm to correct for unspecific absorption. Concentration–effect curves were calculated relative to untreated controls. […]

CT26 cells = experiment: MTT cytotoxicity assay, 96 h exposure; type: cell-based, murine; settings: exposure time 96 h, mean ± SD
Protocol: as §1, §2

[1] = set-up: method as in PMID 28848672; settings: phase I clinical study; cited from earlier work

| Structure (SMILES) | IC50 (HCT116 cells) | IC50 (CT26 cells) | maximum tolerated dose [1] |
| --- | --- | --- | --- |
| [Cl][Ru-]([Cl])([Cl])[Cl].[Na+].c1ccc2[nH]ncc2c1.c1ccc2[nH]ncc2c1 [3a, sodium trans-[tetrachloridobis(indazole)ruthenate(III)]] | 99.4 ± 14.5 µM | 188 ± 17.8 µM | 625 mg/m^2 |
| [Cl][Ru]([Cl])([Cl])[Cl].[Na+].c1ccc2[nH]ncc2c1.c1ccc2[nH]ncc2c1 [3b, [^103Ru]sodium trans-[tetrachloridobis(indazole)ruthenate(III)]] | 94.7 ± 11.7 µM | 173 ± 15.1 µM | – |
